Laboratory results from patent publication US6277825A (priority 1999, dated 2001).
Read-outs that look alike come from different tables or passages of the source. Where a SMILES comes first, the peptide text is derived from it. Where no end group is shown, it is not given here. [ ]: non-standard residue; d: D form. Gla = N[C@@H](CC(C(=O)O)C(=O)O)C(=O)O

Legend:
NMDA receptor = assay type: binding
[1] = Frings audiogenic, mouse, tissue homogenate

Compound | IC50 (NMDA receptor; read-out: IC50) [nM] | IC50 (NMDA receptor) | other results
CC[C@H](C)[C@H](NC(=O)[C@H](CC(C)C)NC(=O)[C@H](C)NC(=O)[C@H](CCC(N)=O)NC(=O)[C@H](CC(N)=O)NC(=O)[C@H](C)NC(=O)[C@H](CCC(N)=O)NC(=O)[C@H](CC(C)C)NC(=O)[C@H](CC(C(=O)O)C(=O)O)NC(=O)[C@H](CC(C(=O)O)C(=O)O)NC(=O)[C@H](CCC(=O)O)NC(=O)CN)C(N)=O [(A^7,10)1-12] (H-GE[Gla][Gla]LQANQALI-NH2; N-terminus assumed) | 300 | – | –
CC[C@H](C)[C@H](NC(=O)[C@H](CC(C)C)NC(=O)[C@H](C)NC(=O)[C@H](CCC(N)=O)NC(=O)[C@H](CC(N)=O)NC(=O)[C@H](C)NC(=O)[C@H](CCC(N)=O)NC(=O)[C@H](CC(C)C)NC(=O)[C@H](CC(C(=O)O)C(=O)O)NC(=O)[C@H](CC(C(=O)O)C(=O)O)NC(=O)[C@H](CCC(=O)O)NC(=O)CN)C(=O)N[C@@H](CCCNC(=N)N)C(N)=O [(A^7,10)1-13] (H-GE[Gla][Gla]LQANQALIR-NH2; N-terminus assumed) | 253 | – | –
CC[C@H](C)[C@H](NC(=O)[C@H](CC(C)C)NC(=O)[C@H](Cc1ccc(O)cc1)NC(=O)[C@H](CCC(N)=O)NC(=O)[C@H](CC(N)=O)NC(=O)[C@H](C)NC(=O)[C@H](CCC(N)=O)NC(=O)[C@H](CC(C)C)NC(=O)[C@H](CC(C(=O)O)C(=O)O)NC(=O)[C@H](CC(C(=O)O)C(=O)O)NC(=O)[C@H](CCC(=O)O)NC(=O)CN)C(=O)N[C@@H](CCCNC(=N)N)C(=O)N[C@@H](CC(C(=O)O)C(=O)O)C(=O)N[C@@H](CCCCN)C(=O)N[C@@H](CO)C(=O)N[C@@H](CC(N)=O)C(N)=O [A^7, Y^10] (H-GE[Gla][Gla]LQANQYLIR[Gla]KSN-NH2; N-terminus assumed) | 79 | – | –
CC[C@H](C)[C@H](NC(=O)[C@H](CC(N)=O)NC(=O)[C@H](CCC(=O)O)NC(=O)[C@H](CCCNC(=N)N)NC(=O)[C@H](C)NC(=O)[C@H](CC(C)C)NC(=O)[C@H](CCC(=O)O)NC(=O)[C@H](C)NC(=O)[C@H](C)NC(=O)[C@H](CCSC)NC(=O)[C@H](CCCCN)NC(=O)[C@H](C)NC(=O)[C@@H](NC(=O)[C@H](CCC(=O)O)NC(=O)[C@H](CCC(=O)O)NC(=O)[C@H](CCC(=O)O)NC(=O)CN)C(C)C)C(=O)N[C@@H](C)C(=O)N[C@@H](CCCCN)C(=O)NCC(=O)N[C@H]1CSSC[C@@H](C(=O)N[C@@H](Cc2ccc(O)cc2)C(=O)N2CCC[C@H]2C(=O)O)NC(=O)[C@H](CC(N)=O)NC(=O)[C@H](C(C)C)NC(=O)[C@H](CCCCN)NC1=O [ECon R] | – | – | T1/2 [1]: 2.4 min
CC[C@H](C)[C@H](NC(=O)[C@H](CC(C)C)NC(=O)[C@H](CC(C(=O)O)C(=O)O)NC(=O)[C@H](CCC(N)=O)NC(=O)[C@H](CC(N)=O)NC(=O)[C@H](CC(C(=O)O)C(=O)O)NC(=O)[C@H](CCC(N)=O)NC(=O)[C@H](CC(C)C)NC(=O)[C@H](Cc1ccc(O)cc1)NC(=O)[C@H](CC(C(=O)O)C(=O)O)NC(=O)[C@H](CCC(=O)O)NC(=O)CN)C(=O)N[C@@H](CCCNC(=N)N)C(=O)N[C@@H](CC(C(=O)O)C(=O)O)C(=O)N[C@@H](CCCCN)C(=O)N[C@@H](CO)C(=O)N[C@@H](CC(N)=O)C(N)=O [E^4] (H-GE[Gla]YLQ[Gla]NQ[Gla]LIR[Gla]KSN-NH2; N-terminus assumed) | ≥ 20000 | – | –
CC[C@H](C)[C@H](NC(=O)[C@H](CC(C)C)NC(=O)[C@H](CC(C(=O)O)C(=O)O)NC(=O)[C@H](CCC(N)=O)NC(=O)[C@H](CC(N)=O)NC(=O)[C@H](CC(C(=O)O)C(=O)O)NC(=O)[C@H](CCC(N)=O)NC(=O)[C@H](CC(C)C)NC(=O)[C@H](CC(C(=O)O)C(=O)O)NC(=O)[C@H](Cc1ccc(O)cc1)NC(=O)[C@H](CCC(=O)O)NC(=O)CN)C(=O)N[C@@H](CCCNC(=N)N)C(=O)N[C@@H](CC(C(=O)O)C(=O)O)C(=O)N[C@@H](CCCCN)C(=O)N[C@@H](CO)C(=O)N[C@@H](CC(N)=O)C(N)=O [Y^3] (H-GEY[Gla]LQ[Gla]NQ[Gla]LIR[Gla]KSN-NH2; N-terminus assumed) | 960 | – | –
(A^7,10,14)2-17: A^7,10,14 Con G with residue 1 deleted (EEELQANQALIRAKSN; ends and bridges not checked; UniProt P07231 81-97, looked up, variant E7A E10A E14A G1*) | – | inactive | –
(A^7,10,14)3-17: A^7,10,14 Con G with residues 1-2 deleted (EELQANQALIRAKSN; ends and bridges not checked; UniProt P07231 81-97, looked up, variant E7A E10A E14A del1-2) | – | inactive | –
(A^7,10,14)4-17: A^7,10,14 Con G with residues 1-3 deleted (ELQANQALIRAKSN; ends and bridges not checked; UniProt P07231 81-97, looked up, variant E7A E10A E14A del1-3) | – | inactive | –
(A^7,10,14)5-17: A^7,10,14 Con G with residues 1-4 deleted (LQANQALIRAKSN; ends and bridges not checked; UniProt P07231 81-97, looked up, variant E7A E10A E14A del1-4) | – | inactive | –
(A^7,10,14)6-17: A^7,10,14 Con G with residues 1-5 deleted (QANQALIRAKSN; ends and bridges not checked; UniProt P07231 81-97, looked up, variant E7A E10A E14A del1-5) | – | inactive | –
